Results on 9 compounds are retold here after patent US6403639B1, “2,3-dihydrobenzofuran derivatives” (Chugai Seiyaku Kabushiki Kaisha, priority 1997, dated 2002).

In assay [1] the test system is porcine kidney-derived LLC-PK1 cells. Nature of the assay: Protective effect against cell injury of porcine kidney-derived LLC-PK1 cells (1), oxidized LDL-induced LDH leakage. It is filed as cell-based. To be noted: oxidized LDL 100 μg/ml, 6 hours; for % cytoprotection 1): test compounds added 16 hours before addition of oxidized LDL; for % cytoprotection 2): test compounds added immediately before addition of oxidized LDL. The protocol: For the purpose of evaluating in vitro cytoprotective effect of the compounds of the present invention, protective effect against cell injury of porcine kidney-derived LLC-PK1 cells (ATCC-CRL-13921) induced by oxidized low-density lipoprotein (oxidized LDL) was examined.
(§1) The oxidized LDL was prepared by placing 1 mg/ml of rabbit LDL in PBS (−) in the presence of 10 μM CuSO4 at 37° C. for 24 hours. Cell cultures were prepared by inoculating 1.25×10^4 cells/250 μl/well on a 48-well plate using M199 medium containing 3% FBS. Test compounds were dissolved or suspended in ethanol and added at a ratio of 1.25 μl/well 16 hours before or immediately before addition of the oxidized LDL to a concentration of 0.1, 1 or 10 μM in each well. The oxidized LDL was diluted twice with physiological saline and then added to cells at 62.5 μl/well to a concentration of 100 μg/ml and the cells were incubated for 6 hours after addition of the oxidized LDL. After the incubation, 162.5 μl of the culture medium was collected from each of the wells and measured for the lactate dehydrogenase (LDH) activity (Lactate Dehydrogenase (LD-L): SIGNA DIAGNOSTICS) which has leaked into the culture medium.
(§2) The cytoprotective effect was expressed as a % cytoprotection where the effect in wells containing the oxidized LDL but without any test compound is 0% and the effect in wells containing physiological saline in place of the oxidized LDL is 100%.

The test system of another assay is cultured mesangial cells. As to the kind of experiment: Protective effect against cell injury of cultured mesangial cells, oxidized LDL-induced LDH leakage. It is filed as cell-based, rats. The method, then:
For the purpose of evaluating in vitro cytoprotective effect of the compounds of the present invention, protective effect against cell injury of cultured mesangial cells induced by oxidized low-density lipoprotein (LDL) was examined. The cells used were subcultures after 4 to 6 passages of the primary cultures of mesangial cells prepared from kidney of 4-week-old SD-strain male rats (Nippon Charles River Corp.).
The oxidized LDL was prepared by placing 1 mg/ml of rabbit LDL in PBS (−) in the presence of 10 μM CuSO4 at 37° C. for 24 hours. Cell cultures were prepared by inoculating 2.5×10^4 cells/250 μl/well on a 48-well plate using RPMI1640 medium containing 20% FBS. Immediately before addition of test compounds, the medium was replaced with RPMI1640 free from FBS. Test compounds were dissolved or suspended in ethanol and added at 1.25 μl/well 16 hours before or immediately before addition of the oxidized LDL to a concentration of 1, 3 or 10 μM in each well. Unlike Test example 1, the oxidized LDL was not diluted with physiological saline and added to cells at 25 μl/well to a concentration of 91 μg/ml and the cells were incubated for 8 hours after addition of the oxidized LDL. After the incubation, 150 μl of the culture medium was collected from each of the wells and measured for the lactate dehydrogenase activity (Lactate Dehydrogenase (LD-L): SIGMA DIAGNOSTICS) which has leaked in the culture medium.
as §2
A general note: Release of lactate dehydrogenase indicates damage to the cell membrane.

Assay [2] relates to porcine kidney-derived LLC-PK1 cells. Nature of the assay: Protective effect against cell injury of porcine kidney-derived LLC-PK1 cells (2), oxidized LDL-induced LDH leakage. It is filed as cell-based. The method, then: as §1, §2
For the purpose of evaluating in vitro cytoprotective effect of the compounds of the present invention, protective effect against cell injury of porcine kidney-derived LLC-PK1 cells (ATCC-CRL-13921) induced by oxidized low-density lipoprotein (oxidized LDL) was examined in the same manner as in Test example 1.
Preparation of oxidized LDL and conditions for cell culture and addition of test compounds were the same as those in Test example 1, except that the oxidized LDL was not diluted with physiological saline and added to cells at 25 μl/well to a concentration of 91 μg/ml and the cells were incubated for 6 hours after addition of oxidized LDL. After the incubation, 150 μl of the culture medium was collected from each of the wells and measured for the lactate dehydrogenase (LDH) activity (Lactate Dehydrogenase (LD-L): SIGMA DIAGNOSTICS) which has leaked in the culture medium.

Setting [3] is: Rattus norvegicus, Mesangial cell; 1 μM; test compounds added 16 hours before addition of oxidized LDL; oxidized LDL 91 μg/ml, 8 hours; read-out: % cytoprotection 1).
Setting [4] is: Rattus norvegicus, Mesangial cell; 1 μM; test compounds added immediately before addition of oxidized LDL; oxidized LDL 91 μg/ml, 8 hours; read-out: % cytoprotection 2).
Where [5] appears, read: Rattus norvegicus, Mesangial cell; 3 μM; test compounds added 16 hours before addition of oxidized LDL; oxidized LDL 91 μg/ml, 8 hours; read-out: % cytoprotection 1).
[6] abbreviates: Rattus norvegicus, Mesangial cell; 3 μM; test compounds added immediately before addition of oxidized LDL; oxidized LDL 91 μg/ml, 8 hours; read-out: % cytoprotection 2).
Where [7] appears, read: Sus scrofa, LLC-PK1; 0.1 μM; test compounds added 16 hours before addition of oxidized LDL; oxidized LDL 91 μg/ml, 6 hours; read-out: % cytoprotection 1).
The mark [8] stands for this setting: Sus scrofa, LLC-PK1; 0.1 μM; test compounds added immediately before addition of oxidized LDL; oxidized LDL 91 μg/ml, 6 hours; read-out: % cytoprotection 2).
The mark [9] stands for this setting: Sus scrofa, LLC-PK1; 1 μM; test compounds added 16 hours before addition of oxidized LDL; oxidized LDL 91 μg/ml, 6 hours; read-out: % cytoprotection 1).
[10] abbreviates: Sus scrofa, LLC-PK1; 1 μM; test compounds added immediately before addition of oxidized LDL; oxidized LDL 91 μg/ml, 6 hours; read-out: % cytoprotection 2).
Where [11] appears, read: Sus scrofa, LLC-PK1; 10 μM; test compounds added 16 hours before addition of oxidized LDL; oxidized LDL 91 μg/ml, 6 hours; read-out: % cytoprotection 1).
Where [12] appears, read: Sus scrofa, LLC-PK1; 10 μM; test compounds added immediately before addition of oxidized LDL; oxidized LDL 91 μg/ml, 6 hours; read-out: % cytoprotection 2).

Where two headings read alike, the source gives them in different places.

On to `CC1(C)Cc2cc(O)c(C(C)(C)C)cc2O1` [Example 5, 6-t-Butyl-5-hydroxy-2,2-dimethyl-2,3-dihydrobenzofuran], for which the “% cytoprotection 1)” value in assay [1] (0.1 μM) is reported as 77.6%; in assay [1] (1 μM), 103.4%; in assay [1] (10 μM), 100.6%. In addition, the “% cytoprotection 2)” value was found to be 18.2% in assay [1] (0.1 μM), 100.8% in assay [1] (1 μM) and 101.7% in assay [1] (10 μM). Further, the figures for the inhibition at 1 µM in the assay with cultured mesangial cells (setting [3]) and in the assay with cultured mesangial cells (setting [4]) were 34.2 ± 4.5% and 11.3 ± 2.4%, respectively. In addition, the inhibition at 3 µM amounted to 42.3 ± 4.7% in the assay on cultured mesangial cells (setting [5]) and 28.9 ± 2% in the assay on cultured mesangial cells (setting [6]).
For `CC(C)(C)c1cc(O)c(C(C)(C)C)c2c1OCC2` [Example 1, 4,7-Di-t-butyl-5-hydroxy-2,3-dihydrobenzofuran], the “% cytoprotection 1)” value in assay [1] (0.1 μM) worked out at 92.7%; in assay [1] (1 μM), 104.1%; in assay [1] (10 μM), 100.5%. Also, the “% cytoprotection 2)” value in assay [1] (0.1 μM) stood at 17.5%; in assay [1] (1 μM), 103.9%; in assay [1] (10 μM) it was 102.3%. For the same compound, the inhibition at 1 µM with cultured mesangial cells (setting [3]) came to 24.2 ± 9.3%; in the assay with cultured mesangial cells (setting [4]) it was 40.3 ± 3.2%. Besides, the inhibition at 3 µM with cultured mesangial cells (setting [5]) is 78.2 ± 13.4%; in the assay with cultured mesangial cells (setting [6]), 69.7 ± 13.3%.
Consider `CC(C)Cc1c(O)c(C(C)(C)C)cc2c1CC1(CCCCCC1)O2` [Example 11, 6-t-Butyl-5-hydroxy-4-(2-methylpropyl)-2,3-dihydrobenzofuran-2-spiro-1′-cycloheptane], for which the values for the inhibition at 0.1 µM in assay [2] (setting [7]) and in assay [2] (setting [8]) were -2.7% and -20.4%, respectively. Moreover, the inhibition at 1 µM in assay [2] (setting [9]) was 53.4%; in assay [2] (setting [10]), 88.7%; in the assay on cultured mesangial cells (setting [3]) it was -3.5 ± 9.1%; with cultured mesangial cells (setting [4]), 4.8 ± 5.1%. The inhibition at 10 µM amounted to 102% in assay [2] (setting [11]) and 103% in assay [2] (setting [12]). Also, the inhibition at 3 µM is 13.8 ± 7.8% in the assay on cultured mesangial cells (setting [5]) and 41.3 ± 1% with cultured mesangial cells (setting [6]).
For `CC(C)(C)c1cc2c(cc1O)CC1(CCCCCC1)O2` [Example 7, 6-t-Butyl-5-hydroxy-2,3-dihydrobenzofuran-2-spiro-1′-cycloheptane], the inhibition at 0.1 µM stood at 19.1% in assay [2] (setting [7]) and 14.7% in assay [2] (setting [8]). Besides, the inhibition at 1 µM in assay [2] (setting [9]) is 104%; in assay [2] (setting [10]), 104%; in the assay on cultured mesangial cells (setting [3]) it was 19.3 ± 2.8%; with cultured mesangial cells (setting [4]) it was 22 ± 1.9%. Moreover, the inhibition at 10 µM in assay [2] (setting [11]) and in assay [2] (setting [12]) was 105% each time. Further, the inhibition at 3 µM was found to be 18.1 ± 4.1% with cultured mesangial cells (setting [5]) and 24.5 ± 0.8% in the assay with cultured mesangial cells (setting [6]).
For the compound `Cc1c(O)c(C(C)(C)C)cc2c1CC1(CCCCCC1)O2` [Example 14-(1), 6-t-Butyl-5-hydroxy-4-methyl-2,3-dihydrobenzofuran-2-spiro-1′-cycloheptane], the inhibition at 0.1 µM in assay [2] (setting [7]) was -6.5%; in assay [2] (setting [8]), -9.2%. In addition, the inhibition at 1 µM in assay [2] (setting [9]) was 103%; in assay [2] (setting [10]) it was 101%; in the assay with cultured mesangial cells (setting [3]), 19.7 ± 7.7%; in the assay on cultured mesangial cells (setting [4]), 34.4 ± 1.5%. Further, the inhibition at 10 µM was 104% in assay [2] (setting [11]) and 103% in assay [2] (setting [12]). For the same compound, the inhibition at 3 µM in the assay with cultured mesangial cells (setting [5]) turned out to be 59.3 ± 2.1%; in the assay with cultured mesangial cells (setting [6]), 43.2 ± 2.8%.
As to `CCC(C)c1c(O)c(C(C)(C)C)cc2c1CC1(CCCCCC1)O2` (stereo not drawn) [Example 13, 6-t-Butyl-5-hydroxy-4-(1-methylpropyl)-2,3-dihydrobenzofuran-2-spiro-1′-cycloheptane], the results for the inhibition at 0.1 µM in assay [2] (setting [7]) and in assay [2] (setting [8]) were 5.5% and 3.4%, respectively. The inhibition at 1 µM in assay [2] (setting [9]) is 13.6%; in assay [2] (setting [10]) it was 9.9%; in the assay with cultured mesangial cells (setting [3]), 1.7 ± 2.9%; with cultured mesangial cells (setting [4]), -4.3 ± 5.1%. Besides, the inhibition at 10 µM in assay [2] (setting [11]) and in assay [2] (setting [12]) was 100% throughout. Moreover, the inhibition at 3 µM was 18.4 ± 9.2% in the assay on cultured mesangial cells (setting [5]) and 11.1 ± 4.3% with cultured mesangial cells (setting [6]).
Consider `CCc1c(O)c(C(C)(C)C)cc2c1CC1(CCCCCC1)O2` [Example 14-(2), 6-t-Butyl-4-ethyl-5-hydroxy-2,3-dihydrobenzofuran-2-spiro-1′-cycloheptane], for which the inhibition at 0.1 µM is -14.3% in assay [2] (setting [7]) and -13.9% in assay [2] (setting [8]). For the same compound, the inhibition at 1 µM in assay [2] (setting [9]) was 103%; in assay [2] (setting [10]), 99.4%; with cultured mesangial cells (setting [3]), 6.6 ± 8.4%; in the assay with cultured mesangial cells (setting [4]), 23.1 ± 1.2%. Further, the inhibition at 10 µM was determined as 104% in assay [2] (setting [11]) and 105% in assay [2] (setting [12]). Further, the inhibition at 3 µM in the assay with cultured mesangial cells (setting [5]) worked out at 52.7 ± 14.3%; in the assay on cultured mesangial cells (setting [6]) it was 45.6 ± 1.8%.
For the compound `C=CC(C)c1c(O)c(C(C)(C)C)cc2c1CC1(CCCCCC1)O2` (stereo not drawn) [Example 12, 6-t-Butyl-5-hydroxy-4-(1-methyl-2-propenyl)-2,3-dihydrobenzofuran-2-spiro-1′-cycloheptane], the inhibition at 0.1 µM was -15.5% in assay [2] (setting [7]) and -8.4% in assay [2] (setting [8]). Also, the inhibition at 1 µM in assay [2] (setting [9]) came to 77.9%; in assay [2] (setting [10]), 79.4%; in the assay with cultured mesangial cells (setting [3]), 11.8 ± 2.6%; in the assay with cultured mesangial cells (setting [4]), 17.4 ± 4%. Also, the inhibition at 10 µM in assay [2] (setting [11]) and in assay [2] (setting [12]) was 102% throughout. Moreover, the inhibition at 3 µM in the assay with cultured mesangial cells (setting [5]) amounted to 37.9 ± 8.3%; in the assay on cultured mesangial cells (setting [6]), 42.8 ± 3.7%.
Regarding `CCCc1c(O)c(C(C)(C)C)cc2c1CC1(CCCCCC1)O2` [Example 9, 6-t-Butyl-5-hydroxy-4-n-propyl-2,3-dihydrobenzofuran-2-spiro-1′-cycloheptane], the inhibition at 0.1 µM stood at 12.9% in assay [2] (setting [7]) and 11.5% in assay [2] (setting [8]). Further, the inhibition at 1 µM in assay [2] (setting [9]) was 47.7%; in assay [2] (setting [10]), 58.9%; in the assay on cultured mesangial cells (setting [3]) it was 14.4 ± 5.1%; in the assay with cultured mesangial cells (setting [4]), 29.6 ± 2%. Also, the inhibition at 10 µM in assay [2] (setting [11]) and in assay [2] (setting [12]) was 104% in each case. For the same compound, the values for the inhibition at 3 µM with cultured mesangial cells (setting [5]) and in the assay with cultured mesangial cells (setting [6]) were 56.2 ± 9.3% and 46.3 ± 1.7%, respectively.
